In brackets after ≈: the same amount, converted by molar mass. Structures can show the parent of a compound that is named as a salt. Positions of bridges follow the written chain, without caps; N, C: chain ends. Non-standard residues stand in square brackets, D forms with d. Residues, ends and D or L forms follow the SMILES beside them. *: point of attachment. X1 = CC[C@H](C)CCCCC(=O)*; Dab = NCC[C@H](N)C(=O)O
Experiments:
Type in all cases: cell-based
Settings in all cases: cation-adjusted Mueller Hinton broth, serial 2-fold dilutions, repeated 3 times
[1] = test system: Pseudomonas aeruginosa PAO1 Wt
[2] = test system: Pseudomonas aeruginosa PAO1 vacJ− mutant
[3] = test system: Pseudomonas aeruginosa PAO1 vacJ−:vacJ complemented strain

`CC[C@H](C)CCCCC(=O)N[C@@H](CCN)C(=O)N[C@H](C(=O)N[C@@H](CCN)C(=O)N[C@H]1CCNC(=O)[C@H]([C@@H](C)O)NC(=O)[C@H](CCN)NC(=O)[C@H](CCN)NC(=O)[C@H](CC(C)C)NC(=O)[C@@H](CC(C)C)NC(=O)[C@H](CCN)NC1=O)[C@@H](C)O` [Colistin, colistin sulfate] (X1-[Dab]T[Dab][Dab][Dab][dL]L[Dab][Dab]T; lactam 4-C (inferred); N-terminus assumed) gave an MIC [1] of 1 µg/mL, an MIC [2] of 0.5 µg/mL and an MIC [3] of 1 µg/mL.

Compound `CC[C@H](C)CCCCC(=O)N[C@@H](CCN)C(=O)N[C@H](C(=O)N[C@@H](CCN)C(=O)N[C@H]1CCNC(=O)[C@H]([C@@H](C)O)NC(=O)[C@H](CCN)NC(=O)[C@H](CCN)NC(=O)[C@H](CC(C)C)NC(=O)[C@@H](Cc2ccccc2)NC(=O)[C@H](CCN)NC1=O)[C@@H](C)O` [Polymyxin B] (X1-[Dab]T[Dab][Dab][Dab][dF]L[Dab][Dab]T; lactam 4-C (inferred); N-terminus assumed) has an MIC [1] of 0.5 µg/mL (≈ 0.415 µM), an MIC [2] of 0.25 µg/mL (≈ 0.208 µM) and an MIC [3] of 0.5 µg/mL (≈ 0.415 µM).

Reference: article PMC5671890 (Journal of molecular medicine (Berlin, Germany), 2017)
